# Experimental data as given in US20250034191A1, “LIGININ FLOWER PRODUCTION AND USES THEREOF” (SILICYCLE INC., priority 2021, published 2025).
# Where “and” joins values, the source holds several entries; their conditions need not be identical. Equal entries are not always repeated.
# Experiments:
# S. typhimurium TA 98 = experiment: Ames test (OECD 471), plate incorporation assay; type: cell-based, Salmonella typhimurium; settings: TA 98 with S9, positive control, 3.0 μg/plate (Table 3)
# Source text: The purpose of the test is to investigate the possible genotoxic activity exerted by the tested substance in bacterial strains of Salmonella typhimurium, with and without metabolic activation with S9.
# The Ames test allows for detecting the induction of point mutations in nucleotide bases, such as deletions, insertions, transversions and frameshift mutations by using modified Salmonella typhimurium strains. These strains carry a defective gene in the histidine operon making them auxotroph for this amino acid (mutants His-which require histidine in the culture medium for growth). The method guiding principle is based on the reverse mutation phenomenon by which bacteria exposed to a mutagenic substance may change back and become again prototroph concerning histidine (His+). The bacterial cells in growth phase are exposed to different concentrations of the test agent and mutagenic activity is determined by the capability of the test substance to induce a significant increase in the number of revertant (histidine-independent mutant, His+) in comparison to the spontaneous reversions occurring in the control cultures.
# Some chemical agents are not directly mutagen but become so by following transformation and metabolic activation occurring in the organism by liver enzyme activity. To study this genotoxic effect, rat liver microsomal fraction (S9) has been added. The employ of S9 allows identifying substances that act as indirect mutagen.
# In this assay, 5 bacterial strains TA 1535, TA100, TA 102, TA 1537 and TA98 have been used and their characteristics are illustrated in Table 3. Each tester strains contains a different type of mutation in the histidine operon. TA 1535 and TA 100 strains are specific testers for mutagens causing base substitutions. The TA 102 strain is used to detect mutagens that require an intact excision repair system. […] Furthermore, the TA 102 strain contains the multicopy plasmid, pAQ1, which confers tetracycline resistance. The frameshift tester strains used are TA 1537 and TA 98. TA 98, like TA 100, is ampicillin resistant. All S. typhimurium strains carry, along with the defect in the histidine gene (His−), a deep rough (rfa) character, a mutation that causes partial loss of the lipopolysaccharide barrier that coats the surface of the bacteria and increases permeability to large molecules. […] For technical reason, the deletion excising the uvrB gene extends through the bio gene and, consequently, these bacteria also require biotin for growth.
# The study was performed using the plate incorporation assay with and without S9 mix. S9 is composed by Aroclor 1254 induced rat liver supplemented with glucose-6-phosphate and NADP (Moltox®). The experiment was performed in duplicate Petri dishes containing basal medium and a further layer of medium containing histidine+biotin, the Salmonella typhimurium suspension, the sample to be tested at different concentrations and, if the case of metabolic activation, a 5% S9 mix. Dishes were incubated for 48 hours at 37° C. When the incubation time was over, a basal bacterial growth was achieved limited by the amount of histidine in the medium and in add the growth of revertant colonies (his+). In particular, the basic number of revertant colonies is steady, different for each strain, due to the spontaneous mutation rate of the bacterial strain. If an increase in the number of revertant colonies is observed, this is proportional to the tested sample concentration and to its mutagen capability. […]
# NADPH-oxidase complex = settings: Zhang, Yi et al., American Journal of Hypertension, 2005; cited from earlier work
# secreted IL6 = experiment: Interleukin 6 (IL6) secretions in coculture; type: cell-based, human
# Source text: To assess the effect of the test element on inflammation, we assayed extracellular concentrations of secreted IL6. The results were normalized by the number of fibroblasts and represented as a percentage of the solvent condition DMSO (FIG. 13).
# [1] = system: reconstructed artificial human skin model (normal human epidermal keratinocytes); experiment: In vitro skin irritation, reconstructed human epidermis (OECD 439), MTT; type: cell-based; settings: 42 h treatment, 42 hours incubation
# Procedure: The purpose of this test is to evaluate if the tested material is, or is not a skin irritant, according to the method described in OECD 439. This method uses the human artificial skin model (EPISKIN™, EpiDerm™, Episkin™ RHE) to assess the skin irritation of chemical substances, mixtures and to properly label them to this respect if applicable.
# The test is based on the evaluation of cell survival after the exposure to the substance through MTT assay and by comparison with epidermis treated with phosphate buffer only (negative control). The MTT method is a colorimetric assay that allows to determine the percentage of cells alive within an in vitro cultured tissue. This assay is based on the ability of the mitochondrial succinate dehydrogenase enzyme to metabolize the nitro-blue tetrazolium salt, giving a colored compound that can be measured by spectrophotometer reading. […]
# Epidermis units are treated with 1 mg/ml MTT solution (3-[4,5-dimethylthiazol-2-yl]-2,5-diphenyl tetrazolium bromide) for 3 h at 37° C. […] 2 aliquots of every sample are transferred to a 96 well plate for the reading. The absorbance is read at the wavelength of 570 nm with a colorimeter (Tecan model Infinite 200 PRO) equipped with a microplate reader.
smiles,measurement,setting,value
"Nc1ccc2cc3ccccc3cc2c1 [2AAn, 2-aminoanthracene]",Statistically significant vs solvent control (p < 0.05),S. typhimurium TA 98,yes
same,"revertant, mean",S. typhimurium TA 98,3320 UFC/plate
same,"revertant, single replicates",S. typhimurium TA 98,3353 UFC/plate and 3291 UFC/plate and 3316 UFC/plate
"COc1cc(C(C)=O)ccc1O [Apocynin, apocynin]",inhibition of the NADPH-oxidase complex,NADPH-oxidase complex,effective inhibitor
C[C@@H]1C[C@H]2[C@@H]3CCC4=CC(=O)C=C[C@]4(C)[C@@]3(F)[C@@H](O)C[C@]2(C)[C@@]1(O)C(=O)CO [Dexamethasone],"IL6 secretions, normalized by number of fibroblasts","secreted IL6; D3, anti-inflammatory reference",25%
same,"IL6 secretions, normalized by number of fibroblasts","secreted IL6; D6, compared to the coculture control",85%
CCCCCCCCCCCCOS(=O)(=O)[O-].[Na+] [SLS 5%],Classification,[1],I (Irritant)
same,% mean cell viability (ds),[1]; tested undiluted,0.93%
